The record followed here is ChEMBL document CHEMBL1126504, “Synthesis of pyrrolidine oxazoles as thromboxane A2/endoperoxide receptor antagonists” (Bioorg Med Chem Lett, 1993).

Assay [1] has as its target T1, Thromboxane A2 receptor (Homo sapiens, UniProt P21731).
T1 sequence (P21731 whole entry): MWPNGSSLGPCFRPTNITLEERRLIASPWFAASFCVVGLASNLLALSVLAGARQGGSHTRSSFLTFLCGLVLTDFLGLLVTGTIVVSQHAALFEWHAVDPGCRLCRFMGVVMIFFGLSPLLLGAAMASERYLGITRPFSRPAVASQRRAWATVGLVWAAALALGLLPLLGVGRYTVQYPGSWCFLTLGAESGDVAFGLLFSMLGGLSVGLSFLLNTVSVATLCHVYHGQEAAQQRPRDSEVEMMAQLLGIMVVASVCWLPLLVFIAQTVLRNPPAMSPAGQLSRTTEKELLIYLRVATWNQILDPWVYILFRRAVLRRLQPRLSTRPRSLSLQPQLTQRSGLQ
Nature of the assay: Binding affinity was determined for Thromboxane A2 receptor in human platelet membrane in presence of [3H]-SQ-29,548 radioligand. The class given is cell membranes.

The species named for assay [2] is Homo sapiens. Nature of the assay: Inhibition of arachidonic acid-induced and ADP-induced platelet aggregation of human platelet rich plasma. It is filed as functional. Particulars: read-out: I50.

As to `O=C(O)CCc1ccccc1CN1CCCC1c1nc(C(=O)NCCCCC2CCCCC2)co1` (stereo not drawn), in assay [1], the Kd (commonly the concentration at which binding is half-saturated) is 11 nM.

As for `O=C(O)CCc1ccccc1CN1CCC[C@@H]1c1nc(C(=O)NCCCCC2CCCCC2)co1`, the IC50 in assay [2] (Homo sapiens, Plasma) is 1700 nM.

`O=C(O)CCc1ccccc1CN1CCC[C@H]1c1nc(C(=O)NCCCCC2CCCCC2)co1`: in assay [2] (Homo sapiens, Plasma), the IC50 was 19 nM.

For the molecule `O=C(O)CCc1ccccc1C(=O)N1CCC[C@H]1c1nc(C(=O)NCCCCC2CCCCC2)co1`, in assay [2] (Homo sapiens, Plasma), the IC50 turned out to be 19 nM.

Take `O=C(O)CCc1ccccc1CN1C(=O)CCC1c1nc(C(=O)NCCCCC2CCCCC2)co1` (stereo not drawn): the IC50 in assay [2] (Homo sapiens, Plasma) is 23000 nM.

In the case of `O=C(O)CCc1ccccc1C(=O)N1[C@@H](O)CC[C@H]1c1nc(C(=O)NCCc2ccc(Cl)cc2)co1`, the IC50 in assay [2] (Homo sapiens, Plasma) came out at 3700 nM.

Turning to `O=C(O)CCc1ccccc1C(=O)N1c2ccccc2CC1c1nc(C(=O)NCCc2ccc(Cl)cc2)co1` (single isomer, unassigned; (+)), the IC50 in assay [2] is 250 nM.

`O=C(O)CCc1ccccc1C(=O)N1c2ccccc2CC1c1nc(C(=O)NCCc2ccc(Cl)cc2)co1` (single isomer, unassigned; (-)): the IC50 in assay [2] is 3700 nM.
